Measured values taken from publication PMC11121924, “Protopine and Allocryptopine Interactions with Plasma Proteins” (International Journal of Molecular Sciences, 2024).

How the values were obtained:
[1] = target: T1, α-1-acid glycoprotein (AAG, orosomucoid) (Homo sapiens, UniProt P02763); experiment: UV-Vis absorption titration (Benesi-Hildebrand); quinaldine red displacement by fluorescence; type: binding
T1 construct: gene ORM1

[2] = target: T2, human serum albumin (HSA) (Homo sapiens, UniProt P02768); experiment: UV-Vis absorption titration (Benesi-Hildebrand); dPhe marker displacement by fluorescence; type: binding
T2 construct: gene ALB
T2 sequence (P02768 25-609): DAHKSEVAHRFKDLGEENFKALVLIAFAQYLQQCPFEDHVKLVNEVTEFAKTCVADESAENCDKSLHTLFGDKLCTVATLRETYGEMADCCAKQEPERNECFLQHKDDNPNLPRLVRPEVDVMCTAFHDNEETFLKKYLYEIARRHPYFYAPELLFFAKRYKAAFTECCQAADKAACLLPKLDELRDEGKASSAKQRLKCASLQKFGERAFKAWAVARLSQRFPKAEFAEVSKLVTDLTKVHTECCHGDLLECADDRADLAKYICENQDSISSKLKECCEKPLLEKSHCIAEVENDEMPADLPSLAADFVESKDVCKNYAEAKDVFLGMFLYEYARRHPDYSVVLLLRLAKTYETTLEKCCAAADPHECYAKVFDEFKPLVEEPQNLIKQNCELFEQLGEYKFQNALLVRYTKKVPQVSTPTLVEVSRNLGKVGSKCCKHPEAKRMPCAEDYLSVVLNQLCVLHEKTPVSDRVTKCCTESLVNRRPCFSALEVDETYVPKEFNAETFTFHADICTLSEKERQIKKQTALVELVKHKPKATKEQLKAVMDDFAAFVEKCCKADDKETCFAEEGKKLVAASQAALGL

T1 sequence (P02763 19-201): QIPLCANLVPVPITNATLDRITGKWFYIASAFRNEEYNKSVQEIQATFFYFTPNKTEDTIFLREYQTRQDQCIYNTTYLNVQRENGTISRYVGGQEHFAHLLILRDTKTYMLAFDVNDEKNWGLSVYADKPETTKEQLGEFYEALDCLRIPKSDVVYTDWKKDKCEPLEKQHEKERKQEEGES

| SMILES | Kapp.10^4 [dm^3mol^-1] [1] | Kd [2] | Kd ([1]; read-out: Kapp.10^4 [dm^3mol^-1] (converted)) |
| --- | --- | --- | --- |
| CN1CCc2cc3c(cc2C(=O)Cc2ccc4c(c2C1)OCO4)OCO3 [PP, protopine] | 1.34 ± 0.0.03 | 46.9 µM |  |
| COc1ccc2c(c1OC)CN(C)CCc1cc3c(cc1C(=O)C2)OCO3 [ACP, allocryptopine] |  | 19.9 µM | 44.6 µM |
